logP and solubility data for nine molecules are collected here from the OPERA property sets (Mansouri et al. 2018).

≈ marks a conversion by molar mass, not a printed value.

Conditions in the first data set: not given
A word on the logP: it is a log measure of how a compound divides between an organic and an aqueous phase. Lower therefore signals lower lipophilicity. `CC(=O)OCOc1ccccc1C(=O)NCN1CCOCC1`: the logP was 0.27.
On the same count and under the same terms, the figure for `CC(C)(C)C(=O)OCOc1ccccc1C(=O)NCN1CCOCC1` is 1.81.
Still for that read-out and setting: the figure for `CCCC(=O)OCOc1ccccc1C(=O)NCN1CCOCC1` is 1.34; for `CCOC(=O)CC(CO)C(CC)c1cncn1C` (stereo not given) it is 0.73.
For `O=C(NCN1CCOCC1)c1ccccc1O`, the logP was 1.27.
Still for that read-out and setting: the figure for `CC(=O)OCOc1ccccc1C(N)=O` is 0.52.
`CC(C)(C)C(=O)OCOc1ccccc1C(N)=O` gave a logP of 2.
The same measure, in the same setting: the figure for `CCC(C(=O)OCCc1ccccc1)C(COC(=O)c1ccccc1)Cc1cncn1C` (stereo not given) is 4.6; for `CCCC(=O)OCOc1ccccc1C(N)=O` it is 1.66.

The same data set, now with this note: 23 °C.
One may read the solubility as the dissolved amount per volume that the medium holds. Low values mean a poorly soluble substance, high ones a readily soluble substance. As to `CC(C)(C)C(=O)OCOc1ccccc1C(N)=O`, the solubility was 2430 µM (≈ 610 µg/mL).
